Test results reported in patent US12090163B2, “Pharmaceutical compositions” (CIPLA LIMITED, priority 2017, dated 2024).
Like-named read-outs stand apart in the source and are kept apart here.

Legend:
HIV-1NL4-3 = assay: Two-drug combination anti-HIV assay in MT4 cells, MacSynergy II analysis; format: cell-based; set-up: Antiviral Activity Synergy volume / Antiviral Activity Antagonism volume: unit not given here
Procedure: (§1) This two-drug combination analysis study was performed using the Prichard and Shipman MacSynergy II three dimensional model for statistical evaluation of combination anti-HIV assays. Using a standardized microtiter plate format, each combination assay was performed in MT4 cells acutely infected with HIV-1NL4-3.
(§2) MT4 cells (obtained from the NIH AIDS Research and Reference Reagent Program) were passaged in T-75 flasks prior to use in the antiviral assay. On the day preceding the assay, the cells were split 1:2 to assure they were in an exponential growth phase at the time of infection. Total cell and viability quantification was performed using a hemacytometer and trypan blue exclusion. Cells with greater than 95% cell viability were utilized in the assay. The cells were re-suspended in tissue culture medium and added to the drug-containing microtiter plates in a volume of 110 μL and at a seeding density of 5.0×10^3 cells/well.
(§3) Combination antiviral efficacy was evaluated on three identical assay plates (i.e., triplicate measurements) that included cell control wells (cells only) and virus control wells (cells plus virus). Combination cytotoxicity was evaluated in parallel on two identical assay plates (i.e., duplicate measurements) that included cell control wells.

MT4 cells = assay: Two-drug combination cytotoxicity in uninfected MT4 cells, MacSynergy II analysis
Procedure: as §1, §2, §3

[1] = two-drug combination with the pivalate fumarate, HIV-1NL4-3 in MT4 cells
[2] = two-drug combination with the pivalate fumarate, MT4 cells infected with HIV-1NL4-3
[3] = two-drug combination with the pivalate fumarate, uninfected MT4 cells

Row | Compound | Interpretation Antiviral (HIV-1NL4-3; [1]) | Antiviral Activity Antagonism volume (HIV-1NL4-3; [2]) | Antiviral Activity Synergy volume (HIV-1NL4-3; [2]) | also measured
1 | COC(=O)N[C@H](C(=O)N[C@@H](Cc1ccccc1)[C@@H](O)CN(Cc1ccc(-c2ccccn2)cc1)NC(=O)[C@@H](NC(=O)OC)C(C)(C)C)C(C)(C)C [Atazanavir] | Additive | −3.50 | 39.1 | 
2 | CC(C)c1nc(CN(C)C(=O)N[C@@H](CCN2CCOCC2)C(=O)N[C@H](CC[C@H](Cc2ccccc2)NC(=O)OCc2cncs2)Cc2ccccc2)cs1 [Cobicistat] | Additive | −6.12 | 0 | 
3 | CC(C)CN(C[C@@H](O)[C@H](Cc1ccccc1)NC(=O)O[C@H]1CO[C@H]2OCC[C@H]21)S(=O)(=O)c1ccc(N)cc1 [Darunavir] |  |  |  | Antiviral Activity Antagonism volume (HIV-1NL4-3): 188/−36.5; Antiviral Activity Synergy volume (HIV-1NL4-3): 188/−36.5
4 | C[C@@H]1CCO[C@H]2Cn3cc(C(=O)NCc4ccc(F)cc4F)c(=O)c(O)c3C(=O)N12 [Dolutegravir] | Additive | −4.46 | 17.9 | 
5 | O=C1Nc2ccc(Cl)cc2[C@@](C#CC2CC2)(C(F)(F)F)O1 [Efavirenz] |  | −5.92 | 79.0 | 
6 | COc1cc2c(cc1Cc1cccc(Cl)c1F)c(=O)c(C(=O)O)cn2[C@H](CO)C(C)C [Elvitegravir] |  | 0 | 67.3 | 
7 | Nc1nc(=O)n([C@@H]2CS[C@H](CO)O2)cc1F [Emtricitabine] |  | −8.75 | 98.8 | 
8 | Cc1ccnc2c1NC(=O)c1cccnc1N2C1CC1 [Nevirapine] | Additive | −9.09 | 47.6 | 
9 | Cc1nnc(C(=O)NC(C)(C)c2nc(C(=O)NCc3ccc(F)cc3)c(O)c(=O)n2C)o1 [Raltegravir] |  |  |  | Cytotoxicity Antagonism volume (MT4 cells; [3]): −4.70; Interpretation Cytotoxicity (MT4 cells; [3]): Additive; Antiviral Activity Antagonism volume (HIV-1NL4-3): 1.61/−2.72; Antiviral Activity Synergy volume (HIV-1NL4-3): 1.61/−2.72; Interpretation Antiviral (HIV-1NL4-3): Additive
10 | C[C@H](Cn1cnc2c(N)ncnc21)OCP(=O)(O)O [Tenofovir, 9-R-[(2-phosphonomethoxy)propyl]adenine] |  |  |  | Cytotoxicity Antagonism volume (MT4 cells): 0/0; Cytotoxicity Synergy volume (MT4 cells): 0/0; Interpretation Cytotoxicity (MT4 cells; [3]): Additive; Antiviral Activity Antagonism volume (HIV-1NL4-3): 79.0/−7.08; Antiviral Activity Synergy volume (HIV-1NL4-3): 79.0/−7.08
11 | Tenofovir alafenamide hemifumarate [TAF] | Additive | −47.1 | 41.2 | Cytotoxicity Antagonism volume (MT4 cells; [3]): 0/0; Cytotoxicity Synergy volume (MT4 cells; [3]): 0/0; Interpretation Cytotoxicity (MT4 cells; [3]): Additive
